Data as given in patent US7507555B2, “Probe for detecting and quantifying lipid second messenger and method of detecting and quantifying lipid second messenger using the same” (Japan Science and Technology Agency, priority 2003, dated 2009).

Legend:
[1] = test system: C1B domain derived from PKC; assay: Response of DAG-fllip-pm and DAG-fllip-em to phorbol ester (PMA); assay type: cell-based; details: phorbol ester (PMA) added
Experimental: It has been known that C1B domain derived from PKC is selectively bound to DAG. Therefore, this domain was selected as an LBD and the lipid second messenger detecting- and quantifying-probe (hereinafter, referred to as DAG-Fllip) was prepared. Localization domains to the plasma membrane and endomembranes are linked with DAG-fllip to prepare DAG-fllip-pm and DAG-fllip-em. After that, in order to confirm whether the DAG-fllip-pm and the DAG-fllip-em respond to DAG, the DAG-fllip-pm and the DAG-fllip-em were evaluated by using phorbol ester (PMA), which is a substance having a membrane permeability, and specifically bound to C1B domain.

PIP3 = assay: CFP/YFP emission ratio time course after PDGF stimulation of probe-expressing CHO-PDGFR cells; assay type: cell-based, Chinese hamster; details: for PIP3 in plasma membranes and endomembranes: stimulation by other peptide ligands instead of PDGF
Experimental: Ovarian cells of Chinese hamster (CHO) were cultured in Ham's F-12 medium supplemented with 10% fetal calf serum (FCS) at 37° C. in 5% CO2. The resulting CHO-PDGFR cells were plated onto glass-bottomed dishes, each of Fllip-pm, Fllip-pmR284C, Fllip-del and Fllip-em expression vectors were transfected with LipofectAMINE2000 reagent (manufactured by Life Technology) and left for 24 hours at 37° C. in 5% CO2.
After serum starvation with serum-free incubating medium, the medium was replaced with a Hank's balanced salt solution. Then, in accordance with a method already reported by the inventors (such as Non-Patent Documents 12 and 13), the cells were imaged at room temperature on a Carl Zeiss Axiovert 135 microscope with a cooled CCD camera, MicroMAX (Roper Scientific lnc, Tucson, Ariz.), controlled by MetaFluor. (Universal Imaging, West Chester, Pa.). The fluorescence images were obtained through 480±15 nm and 535±12.5 nm filters with a 40× oil immersion objective (Carl Zeiss, Jena, Germany). YFP images were detected by a confocal laser scanning microscope LSM 510 (Carl Zeiss).
Response of Fllip-pm to PIP3 produced by physiological stimulation was examined.
Fllip-pm was expressed in CHO-PDGFR cells stably expressing platelet-derived growth factor receptor (PDGFR). PDGF treatment promotes dimerization of PDGFR that results in phosphorylation of multiple tyrosine residues of PDGFR and its activation. PI3K is recruited to these tyrosine phosphorylation sites through its Src-homology 2 (SH2) domain, resulting in its activation (Schlessinger, J. (2000), Cell, 103, 211-225).
The time course of CFP/YFP-emission ratio when PDGF (50 ng/mL) was added to a cell expressing Fllip-pm at plasma membrane are shown in FIG. 6 and FIG. 7.
According to the same method as in Examples 4 and 5, response of Fllip-pmR284C, of which PHD was mutated not to bind to PIP3, was examined.
Fllip-em was expressed in the CHO-PDGFR cells by the same method as in Example 2. After that, the cells were stimulated with PDGF by the same method as in Example 5 and the time course of CFP/YFP emission ratio was measured.

[2] = PDGF 50 ng/mL, Fllip-pm at plasma membrane of CHO-PDGFR cells

`CCCCCCCCCCCCCC(=O)O[C@@H]1[C@@H](C)[C@@]2(O)[C@@H](C=C(CO)C[C@]3(O)C(=O)C(C)=C[C@@H]23)[C@@H]2C(C)(C)[C@]12OC(C)=O` [phorbol ester] was tested, and the “fluorescence intensity ratio (CFP/YFP) of DAG-fllip-em” value [1] was “decreased” and the “fluorescence intensity ratio (CFP/YFP) of DAG-fllip-pm” value [1] was “decreased”.
With PDGF the CFP/YFP emission ratio (PIP3; [2]) was “decreased immediately”, the “time for CFP/YFP emission ratio to reach a plateau” value (PIP3; [2]) was 300 s and the “extent of PIP3 increase in the endomembranes relative to that in the plasma membrane” value (PIP3; upon PDGF stimulation) was “twice to three times”.
In the case of “epidermal growth factors: other peptide ligand”, the “PIP3 in plasma membranes and endomembranes” value (PIP3) is reported as “induced the PIP3 increase”.
For insulin: other peptide ligand, the “PIP3 in plasma membranes and endomembranes” value (PIP3) was “induced the PIP3 increase”.
